In general, solubility refers to the dissolved amount per volume that the medium holds. Read a low solubility as little dissolved substance.

Structures are written as SMILES.

Series [1] relates to human normal hepatocyte cells (L-02). The series is described as follows: MTT toxicity assay, normal hepatocytes L-02. Type of series: cell-based. Particulars: 72 h, normal hepatocyte L-02 (toxicity), read-out: Antiproliferative Activity (IC50/μM) L-02. How it is done: (§1) Human lung cancer cell (A549,), human umbilical vein endothelial cells (HUVECs,), human colon cancer cell lines (HCT-15), human breast cancer cells (MCF-7), human liver cancer cells (HepG2), human pancreatic cancer cells (BxPC-3), and human hepatic cell line (L-02) were obtained from the Sichuan University. A549, HUVECs, and L-02 were cultured in DMEM medium (high glucose, HyClone, GE Healthcare, Sydney, Australia). Human colon cancer cell lines HCT-15, human pancreatic cancer cells […] BxPC-3 were cultured in RPMI-1640. Human breast cancer cells MCF-7 and human liver cancer cells HepG2 were cultured in MEM medium. All the mediums, including 10% fetal bovine serum (FBS, HyClone, GE Healthcare, Sydney, Australia) and 1% ampicillin/streptomycin, were used to culture the above cells at 37 °C in a humidified atmosphere (5% CO2 and 95% air).
(§2) The antiproliferative activity of the title compounds was determined using the MTT (3-(4,5-dimethylthiazol-2-yl)-2,5-diphenyltetrazolium bromide, Sigma-Aldrich, Saint Louis, MO, USA) assay on different cells. Cells lines were seeded into 96-well plates at a density of 2000 to 6000 cells/well. DMSO was used to dissolve the test compounds, and TET was used as a positive control. After 24 h, the test compounds were added at different concentrations (0.625, 1.25, 2.5, 5, 10, and 20 μM) and incubated at 37 °C for 72 h. MTT was added to each well at a final concentration of 0.5 mg/mL and incubated at 37 °C for 4 h. Then, 150 μL of DMSO was added to each well to dissolve the formazan crystals. The absorbance was measured at 570 nm by a microplate reader (ELX800UV, Bio-Tek, Windoski, VT, USA). All measurements were repeated at least three times under the same conditions. Graphpad Prism 8.0 was used to calculate the IC50 values.

For series [2], the system named is human breast cancer cells (MCF-7). Description: MTT antiproliferative assay, MCF-7. Type of series: cell-based. The note with it: Homo sapiens, MCF7, 72 h. How it is done: as §1, §2
In general terms: Tetrazolium assays rely on reduction of a dye to a coloured formazan, in cell work by metabolically active cells.

The subject of series [3] is human liver cancer cells (HepG2). Description: MTT antiproliferative assay, HepG2. The series is classed as cell-based. Particulars: Homo sapiens, HepG2, 72 h. How it is done: as §1, §2
For a further series, the system named is HCT-15 cells. Description: Flow cytometry Annexin V-FITC/PI apoptosis analysis. Particulars: HCT-15, TET treatment groups (1.25, 2.5, 5 μM), 48 h. Type of series: cell-based, human. As to the method:
HCT-15 cells were cultured in complete medium in six-well plates for 24 h, and […]. 2.5, 5 μM of 16 was added in triplicate for 48 h incubation. The cells were digested with trypsin without EDTA, washed twice with cold PBS, and resuspended in 500 μL binding buffer. The cell suspension was stained successively with 5 μL Annexin V-FITC and 5 μL PI (Keygen Biotech, Nanjing, China), and cultured for 15 min and 5 min in total dark, respectively. Afterwards, the percentages of apoptotic cells were determined by a flow cytometry. Data were analyzed by FlowJo software (Version 10, FlowJo, LLC, Ashland, OR, USA).
A general note: In flow cytometry, cells or beads pass a laser one at a time.

Series [4] deals with human umbilical vein endothelial cells (HUVEC). The series is described as follows: MTT antiproliferative assay, HUVEC. The series is classed as cell-based. Particulars: 72 h. How it is done: as §1, §2
Series [5] can be described thus: Aqueous solubility determination by HPLC. Type of series: physicochemical. Particulars: neutral water. How it is done: Briefly, each tested compound (10 mg) was dissolved in 10 mL of CH3OH, and the standard solution (0.5 mL) was used to determine the wavelength of maximum absorbance by HPLC. The solution was diluted as necessary, and the solubility was determined by linear regression with R^2 > 0.999. Each tested compound (5 mg) was ultrasound dissolved in 3 mL of pure water for 1 h at room temperature, and the mixture was then […] at 3000 rpm for 15 min. The saturated supernatants were determined by HPLC at the wavelength of the maximum absorption, and the absorbances were obtained. The solubility was calculated according to the standard curve.

Series [6] relates to human colon cancer cells (HCT-15). Description: MTT antiproliferative assay, HCT-15. The series is classed as cell-based. Particulars: for IC50: Homo sapiens, MTT, 72 h, HCT-15. How it is done: as §1, §2
Series [7] relates to human lung cancer cells (A549). The series is described as follows: MTT antiproliferative assay, A549. The series is classed as cell-based. Particulars: Homo sapiens, A549, 72 h. How it is done: as §1, §2
In series [8] the test system is human pancreatic cancer cells (BxPC-3). Description: MTT antiproliferative assay, BxPC-3. The series is classed as cell-based. The note with it: Homo sapiens, BXPC-3, 72 h. How it is done: as §1, §2

For the compound `COc1ccc2cc1Oc1ccc(cc1)C[C@H]1c3cc(c(OC)cc3CCN1C)Oc1c(OC)c(OC)cc3c1[C@H](C2)N(C)CC3` [TET, tetrandrine], the IC50 was found to be 16 ± 1.18 µM in [1]; 3.9 ± 0.47 µM in series [2]; 3.25 ± 0.11 µM in series [3]; 3.62 ± 0.02 µM in series [4]; 6.12 ± 0.51 µM in [6]; 6.39 ± 0.83 µM in [7]. In addition, the IC50 in series [8] worked out at 7.6 ± 0.16 µM. Besides, in the series with HCT-15 cells, the “Percentage of apoptotic cells” value is reported as “lower than 14%”. Besides, the solubility at 1 h in [5] (pure water, thermodynamic from solid, room temperature, HPLC) was below 30 µg/mL.

For the compound `COc1cc(NC(=O)CNC(=O)OC(C)(C)C)c2cc1Oc1ccc(cc1)C[C@H]1c3cc(c(OC)cc3CCN1C)Oc1c(OC)c(OC)cc3c1[C@H](C2)N(C)CC3` [Compound 3, 14-N-(Boc-L-glycine)-tetrandrine], the IC50 in series [1] is 8.59 ± 0.13 µM; in series [2], 2.91 ± 0.17 µM; in series [3], 1.94 ± 0.27 µM; in series [4] it was 1.68 ± 0.21 µM; in series [6] it was 2.42 ± 0.06 µM; in [7], 2.15 ± 0.17 µM. In series [8], this compound registered an IC50 of 2.55 ± 0.03 µM. Moreover, the “Increase of aqueous solubility compared to TET” value in series [5] (vs TET) is listed as “approximately 16 fold”. Further, in series [6] (HCT-15 cells, vs TET (IC50 = 6.12 μM)), the “Improvement of antiproliferative activity compared with TET” value is “about 2 fold”.

(Values after article PMC9268013, “Design, Synthesis, and Biological Evaluation of N14-Amino Acid-Substituted Tetrandrine Derivatives as Potential Antitumor Agents against Human Colorectal Cancer” (Molecules, 2022).)
